Test results: patent publication US11707441B2, “Safinamide for treating myotonia” (Zambon S.P.A., priority 2018, dated 2023)
Like-named read-outs stand apart in the source and are kept apart here.

Columns and labels:
[1] = target: T1, hNav1.4 V1293I (Homo sapiens, UniProt P35499, V1293I); test: Whole-cell patch clamp sodium current inhibition in transfected HEK293T cells, V1293I mutant; format: cell-based
T1 construct: expressed in transfected cells; host or cells: HEK293T
Protocol: p.V1293I: the V1293I mutation is associated to various phenotypes, from sodium channel myotonia to paramyotonia congenita+hyperkalemic periodic paralysis (Koch et al., 1995).
(§1) Human skeletal muscle subtype of voltage-gated sodium channels (hNav1.4), either wild-type or myotonic mutants, were transiently transfected in HEK293T cells with the calcium-phosphate co-precipitation method. Whole-cell sodium currents (INa) were recorded at room temperature (20-22° C.) using Axon conventional patch-clamp hardware (Molecular Devices, USA). Voltage clamp protocols and data acquisition were performed with pCLAMP software (Axon Instruments). […]
(§2) Inhibition of hNav1.4 channels by safinamide was evaluated by measuring the reduction of INa elicited from a holding potential (HP) of −120 to −30 mV at frequency stimulations of 0.1 and 10 Hz. The concentration-response curves of safinamide were produced by obtaining the peak current amplitude measured in the presence of drug (IDRUG), normalized to the peak current amplitude measured in the same cell before drug application (ICTRL), as a function of drug concentration [(DRUG)]. […] The IC50 values were determined at resting membrane potential (tonic block: −120 mV at 0.1 Hz) and after repetitive depolarizing pulses to −20 mV at 10 Hz (use and frequency-dependent block). […]

[2] = target: T2, Wild Type hNav1.4 (Homo sapiens, UniProt P35499); test: Whole-cell patch clamp sodium current inhibition in transfected HEK293T cells, wild type; format: cell-based
T2 construct: expressed in transfected cells; host or cells: HEK293T
Protocol: as §1, with “Instruments). Bath solution contained (mM) 150 NaCl, 4 KCl, 2 CaCl2, 1 MgCl2, 5 Na-HEPES, and 5 glucose (pH 7.4). The pipette solution contained (in mM) 120 CsF, 10 CsCl, 10 NaCl, 5 EGTA, and 5 Cs-HEPES (pH 7.2).” for “Instruments).”
as §2

[3] = system: rat model of myotonia congenita; test: In vivo antimyotonic activity in 9-AC-induced rat model of myotonia congenita, time of righting reflex (TRR)
Protocol: Myotonia was induced in rats by intraperitoneal injection of 9-AC, which is a known blocker of skeletal muscle ClC-1 chloride channels (Conte Camerino et al., Muscle Nerve. 1989; 12(11):898-904. Altamura et al., Br J Pharmacol. 2018; 175(10):1770-1780). Male Wistar rats (250-300 g) were used. Experiments were performed in accordance with the Guide for the Care and Use of Laboratory Animals and with Italian Health Department approval n. 194/2018-PR. Experimenters were blinded to the treatments. In this animal model, 9-AC mimics in vivo myotonia congenita, a human disease due to loss-of-function mutations in CLCN1 gene encoding ClC-1 channels. […] Nevertheless, the animals remained fully conscious and alert. Breathing was normal. When hearing an unexpected noise, the animals reacted by a jump on site but had great difficulties to move away due to muscle stiffness. Myotonia was evaluated by measuring the time of righting reflex (TRR, the time needed for the rat placed in supine position to turn back on its four paws). In rats, before 9-AC injections the TRR was less than 0.5 s. […] Then the TRR decreased gradually over time, being close to 1 s, 3 h after 9-AC. An anti-myotonic drug is expected to counteract the 9-AC-induced TRR prolongation. The TRR was evaluated about 10 minutes before 9-AC (Time 0) and 10, 37, 67, 127, and 187 min after 9-AC (30 mg/kg i.p.). The TRR measured at each time point was the mean of 7 measurements spaced by 1 min (to limit warm-up effect). Safinamide methanesulfonate (10 and 30 mg/kg as free base) or vehicle were administrated by oral gavage to the rats 17 min after 9-AC injection. 9-AC and safinamide methanesulfonate were dissolved in bicarbonate and 0.9% NaCl solution, respectively. To allow comparison between rats, the TRR measured at each time point was normalized as a function of TRR measured 10 min after 9AC injection in the same rat. Then average data were calculated for each dosage as the mean±S.E.M. Statistical analysis was performed using one-way analysis of variance (ANOVA) followed by ad-hoc Bonferroni's t test. […] In this in vivo model the dose-response curve of safinamide methanesulfonate at increasing doses (0.3, 1, 3, 10 and 30 mg/kg as free base) was also studied. To allow comparison between rats, the TRR measured at each time point was normalized as a function of TRR measured 10 min after 9AC injection in the same rat. Then average data were calculated for each drug/dosage as the mean±S.E.M. Statistical analysis will be performed using one-way analysis of variance (ANOVA) followed by ad-hoc Bonferroni's t test.

[4] = target: T3, hNav1.4 F1298C (Homo sapiens, UniProt P35499, F1298C); test: Whole-cell patch clamp sodium current inhibition in transfected HEK293T cells, F1298C mutant; format: cell-based
T3 construct: expressed in transfected cells; host or cells: HEK293T
From the text: p.F1298C: this mutation was found in a person, presenting with stiffness in facial, upper and lower limb muscles, mainly after contraction (Farinato et al., 2019). Symptoms worsened with cold and myotonia was reported as painful. The patient noticed a mild improvement of myotonia with exercise.
Human skeletal muscle subtype of voltage-gated sodium channels (hNav1.4), either wild-type or myotonic mutants, were transiently transfected in HEK293T cells with the calcium-phosphate co-precipitation method. Whole-cell sodium currents (INa) were recorded at room temperature (20-22° C.) using Axon conventional patch-clamp hardware (Molecular Devices, USA). […]
as §2

[5] = target: T4, hNav1.4 P1158L (Homo sapiens, UniProt P35499, P1158L); test: Whole-cell patch clamp sodium current inhibition in transfected HEK293T cells, P1158L mutant; format: cell-based
T4 construct: expressed in transfected cells; host or cells: HEK293T
Protocol: as §1, with “Instruments). Bath solution contained (mM) 150 NaCl, 4 KCl, 2 CaCl2, 1 MgCl2, 5 Na-HEPES, and 5 glucose (pH 7.4). The pipette solution contained (in mM) 120 CsF, 10 CsCl, 10 NaCl, 5 EGTA, and 5 Cs-HEPES (pH 7.2).” for “Instruments).”
as §2

[6] = target: hNav1.4 I1310N (Homo sapiens, UniProt P35499, I1310N); test: Whole-cell patch clamp sodium current inhibition in transfected HEK293T cells, I1310N mutant; format: cell-based
Protocol: p.I1310N: this mutation has been found in 5 related of a French kindred, and is associated to sodium channel myotonia (Farinato et al., 2019).
Human skeletal muscle subtype of voltage-gated sodium channels (hNav1.4), either wild-type or myotonic mutants, were transiently transfected in HEK293T cells with the calcium-phosphate co-precipitation method. Whole-cell sodium currents (INa) were recorded at room temperature (20-22° C.) using Axon conventional patch-clamp hardware (Molecular Devices, USA). Voltage clamp protocols and data acquisition were performed with pCLAMP software (Axon Instruments). Bath solution contained (mM) 150 NaCl, 4 KCl, 2 CaCl2, 1 MgCl2, 5 Na-HEPES, and 5 glucose (pH 7.4). […]
as §2

[7] = system: sarcolemma excitability in single myofibers of isolated Extensor Digitorum Longus (EDL) muscles; test: In vitro antimyotonic activity in rat EDL skeletal muscle fibers, 9-AC-induced myotonia-like condition, two-microelectrode current clamp; format: cell-based; settings: for reduction of N spikes (maximum number of spikes): vs 9-AC alone
Protocol: The antimyotonic activity of safinamide was assessed by recording the sarcolemma excitability in single myofibers of isolated Extensor Digitorum Longus (EDL) muscles using two-microelectrode current-clamp technique. The in-vitro model of myotonia congenita was obtained by incubating rat EDL muscles with 9-anthracene carboxylic acid (9-AC) (Conte Camerino et al., Muscle Nerve. 1989; 12(11):898-904. Altamura et al., Br J Pharmacol. 2018; 175(10):1770-1780). The increase of sarcolemma excitability caused by 9-AC through the blockade of skeletal muscle ClC-1 chloride channels mimicked the abnormal action potential firing observed in patients affected by myotonia congenita.
EDL muscles were dissected out from male Wistar rats under deep anaesthesia (80 mg/kg ip ketamine and 10 mg/kg ip xylazine). Muscles were placed in a 25 ml muscle bath maintained at 30° C. and perfused with saline (gassed with 95% O2 and 5% CO2; pH=7.2-7.3). By means of standard two-intracellular-microelectrode technique, the resting membrane potential and excitability characteristics (number of spikes) of muscle fibres were measured in current clamp mode. The excitability characteristics of the sampled fibres were determined by recording the intracellular membrane potential response to a square-wave constant (100 ms) current pulse. In each fibre, the membrane potential was set by a steady holding current to −80 mV before passing the depolarizing pulses. By increasing the amplitude of the pulse we were able to elicit the first single action potential and by further increasing current intensity in the same fibre, the maximum number of elicitable spikes (N spikes) was measured (Pierno et al., Br J Pharmacol. 2006; 149(7):909-19).
Unwarranted muscle contractions were hampered with dantrolene sodium (2 mg/1). Cell excitability parameters (N spikes) was measured before (control) and after 50 μM 9-AC alone and concomitant application of safinamide at six different concentrations (0.1 to 30 μM). In these experimental conditions, safinamide methanesulfonate was used and dissolved as stock solution (10 mM) in distilled water, then it was diluted to the final concentrations in the muscle bath solution. One animal was used to test two concentrations of safinamide: one concentration in each EDL muscle.

[8] = system: hNav1.4 point mutations; test: Potency in cells transfected with hNav1.4 point mutations compared to wild type; format: cell-based, human
Protocol: The effect of safinamide was evaluated on some hNav1.4 point mutations located in the inactivation site. Human skeletal muscle subtype of voltage-gated sodium channels (hNav1.4), either wild-type or myotonic mutants, were transiently transfected in HEK293T cells with the calcium-phosphate co-precipitation method. Whole-cell sodium currents (INa) were recorded at room temperature (20-22° C.) using Axon conventional patch-clamp hardware (Molecular Devices, USA). Voltage clamp protocols and data acquisition were performed with pCLAMP software (Axon Instruments). Bath solution contained (mM) 150 NaCl, 4 KCl, 2 CaCl2, 1 MgCl2, 5 Na-HEPES, and 5 glucose (pH 7.4). The pipette solution contained (in mM) 120 CsF, 10 CsCl, 10 NaCl, 5 EGTA, and 5 Cs-HEPES (pH 7.2). Patch pipettes made with Corning 7052 glass (King glass, USA) had resistance ranging from 1 to 3 MΩ. […] The concentration-response curves of safinamide were produced by obtaining the peak current amplitude measured in the presence of drug (IDRUG), normalized to the peak current amplitude measured in the same cell before drug application (ICTRL), as a function of drug concentration [(DRUG)]. […] The IC50 values were determined at resting membrane potential (tonic block: -120 mV at 0.1 Hz) and after repetitive depolarizing pulses to -20 mV at 10 Hz (use and frequency-dependent block). […]

[9] = HP -120 mV, 0.1 Hz, read-out: IC50 ± SE Tonic block at 0.1 Hz
[10] = repetitive depolarizing pulses, 10 Hz, read-out: IC50 ± SE Use and frequency-dependent block at 10 Hz

Sequence of hNav1.4 I1310N (P35499 whole entry I1310N): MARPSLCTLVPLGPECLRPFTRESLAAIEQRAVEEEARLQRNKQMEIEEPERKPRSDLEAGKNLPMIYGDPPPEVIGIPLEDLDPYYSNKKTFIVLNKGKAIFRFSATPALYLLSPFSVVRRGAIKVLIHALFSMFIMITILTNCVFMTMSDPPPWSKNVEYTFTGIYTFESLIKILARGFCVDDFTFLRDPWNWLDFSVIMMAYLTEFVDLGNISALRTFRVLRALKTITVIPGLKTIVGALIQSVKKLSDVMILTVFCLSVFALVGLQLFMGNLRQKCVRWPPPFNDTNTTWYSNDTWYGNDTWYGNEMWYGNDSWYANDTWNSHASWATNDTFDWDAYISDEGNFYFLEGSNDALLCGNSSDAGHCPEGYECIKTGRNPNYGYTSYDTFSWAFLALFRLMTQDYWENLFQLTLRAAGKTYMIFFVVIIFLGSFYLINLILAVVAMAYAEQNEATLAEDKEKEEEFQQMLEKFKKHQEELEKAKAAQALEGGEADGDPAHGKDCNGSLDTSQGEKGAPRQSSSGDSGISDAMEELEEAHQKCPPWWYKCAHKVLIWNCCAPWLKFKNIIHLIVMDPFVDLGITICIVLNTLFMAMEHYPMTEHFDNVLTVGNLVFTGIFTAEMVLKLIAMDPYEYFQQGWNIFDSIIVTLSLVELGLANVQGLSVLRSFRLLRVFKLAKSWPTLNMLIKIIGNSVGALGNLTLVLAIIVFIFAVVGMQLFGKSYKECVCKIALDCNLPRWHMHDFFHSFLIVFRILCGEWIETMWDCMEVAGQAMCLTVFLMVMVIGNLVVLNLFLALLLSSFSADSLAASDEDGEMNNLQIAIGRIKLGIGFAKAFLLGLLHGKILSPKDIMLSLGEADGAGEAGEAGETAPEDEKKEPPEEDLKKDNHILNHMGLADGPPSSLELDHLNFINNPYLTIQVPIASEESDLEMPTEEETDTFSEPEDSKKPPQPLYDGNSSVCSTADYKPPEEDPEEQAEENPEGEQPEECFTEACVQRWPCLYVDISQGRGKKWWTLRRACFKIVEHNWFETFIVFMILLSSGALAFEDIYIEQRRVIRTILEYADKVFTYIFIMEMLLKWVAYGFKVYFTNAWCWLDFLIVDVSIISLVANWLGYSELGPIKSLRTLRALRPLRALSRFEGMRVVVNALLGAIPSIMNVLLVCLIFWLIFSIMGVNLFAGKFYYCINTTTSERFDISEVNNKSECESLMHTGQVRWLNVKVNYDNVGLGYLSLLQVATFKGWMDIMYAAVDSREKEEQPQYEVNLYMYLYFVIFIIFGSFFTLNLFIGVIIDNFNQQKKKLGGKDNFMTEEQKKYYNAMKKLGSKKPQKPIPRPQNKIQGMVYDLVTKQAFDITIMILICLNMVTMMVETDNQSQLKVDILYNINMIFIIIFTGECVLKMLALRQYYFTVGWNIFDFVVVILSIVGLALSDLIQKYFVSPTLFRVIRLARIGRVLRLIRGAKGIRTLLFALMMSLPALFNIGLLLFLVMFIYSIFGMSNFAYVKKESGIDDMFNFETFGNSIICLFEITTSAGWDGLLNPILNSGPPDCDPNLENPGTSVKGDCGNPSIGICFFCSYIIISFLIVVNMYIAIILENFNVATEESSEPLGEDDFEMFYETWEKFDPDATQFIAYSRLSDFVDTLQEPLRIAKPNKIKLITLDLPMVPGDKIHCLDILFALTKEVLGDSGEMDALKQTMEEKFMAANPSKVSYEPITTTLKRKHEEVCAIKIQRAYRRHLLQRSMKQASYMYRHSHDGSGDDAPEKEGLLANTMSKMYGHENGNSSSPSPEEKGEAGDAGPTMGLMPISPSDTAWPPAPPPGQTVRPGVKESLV
T2 sequence (P35499 whole entry): as the sequence (P35499 whole entry I1310N) above, with N1310I counted along it
T3 sequence (P35499 whole entry F1298C): as the sequence (P35499 whole entry I1310N) above, with F1298C, N1310I counted along it
T4 sequence (P35499 whole entry P1158L): as the sequence (P35499 whole entry I1310N) above, with P1158L, N1310I counted along it
T1 sequence (P35499 whole entry V1293I): as the sequence (P35499 whole entry I1310N) above, with V1293I, N1310I counted along it

C[C@H](NCc1ccc(OCc2cccc(F)c2)cc1)C(N)=O [safinamide, (2S)-2-[[4-[(3-fluorophenyl)methoxy]phenyl]methylamino]propanamide]
IC50 [1, 9]: 171 ± 19 µM
IC50 [1, 10]: 47 ± 5 µM
IC50 [2, 9]: 160 ± 18 µM
IC50 [2, 10]: 33 ± 4 µM
reduction of TRR ([3]; 37 min after 9-AC, 3, 10 and 30 mg/kg oral): significant
maximal effect on TRR prolongation ([3]; 67 min, dose of 10-30 mg/kg oral): 66%
TRR inhibition ([3]; 67 min after 9-AC (peak effect), also with 1 mg/kg oral): significant
TRR inhibition ([3]; 127 min after 9-AC, only 10 and 30 mg/kg oral): significant inhibition
ED50 ([3]; Rattus norvegicus, 67 min, dose-response curve at 67 min, oral, read-out: ED50 (effective dose in inhibiting by 50% TRR prolongation)): 1.2 mg/kg
effect on 9-AC-induced TRR prolongation ([3]; at peak effect (37 and 67 min after 9-AC), oral gavage): dose-dependently and significantly counteracted
duration of effect on TRR prolongation ([3]; oral gavage, 17 min after 9-AC): ≤ 120 min
IC50 [4, 9]: 173 ± 12 µM
IC50 [4, 10]: 83 ± 2 µM
IC50 [5, 9]: 148 ± 13 µM
IC50 [5, 10]: 34 ± 3 µM
IC50 [6, 9]: 170 ± 26 µM
IC50 [6, 10]: 46 ± 7 µM
IC50 ([7]; Rattus norvegicus, fit of concentration-response curve, ±SE of the fit, 50 μM 9-AC, read-out: IC50 (concentration able to reduce by 50% the 9-AC effect)): 13.4 ± 2.4 µM
reduction of N spikes (maximum number of spikes) ([7]; safinamide 1 μM with 50 μM 9-AC): 22±6%
reduction of N spikes (maximum number of spikes) ([7]; safinamide 5 μM with 50 μM 9-AC): 35±5%
reduction of N spikes (maximum number of spikes) ([7]; safinamide 10 μM with 50 μM 9-AC): 42±5%
reduction of N spikes (maximum number of spikes) ([7]; safinamide 30 μM with 50 μM 9-AC): 60±6%
reversibility of antimyotonic effect upon wash-out ([7]; wash-out, 9-AC 50 μM): reversible

O=C(O)c1c2ccccc2cc2ccccc12 [9-AC, 9-anthracene carboxylic acid]
time of righting reflex (TRR) ([3]; 10 min after 9-AC injection): about 2 s
time of righting reflex (TRR) ([3]; 30 min after 9-AC injection): about 4 s
time of righting reflex (TRR) ([3]; 3 h after 9-AC injection): ~1 s
increase of N spikes ([7]; 50 μM 9-AC alone vs control): 60%

Cc1cccc(C)c1OCC(C)N (centres unmarked) [mexiletine]
potency in hNav1.4 point mutations transfected cells [8]: significantly decreases
potency relative to safinamide in the same test (fold less potent) ([3]; TRR, 9-AC rat model): about 6 fold
